From patent US9988623B2, “Methods of X-aptamer generation and compositions thereof” (Board of Regents of the University of Texas System, priority 2012, dated 2018)
“And” between values parts separate entries of the source, which are not always exact repeats. Identical values can stand only once. Oligonucleotides are written 5' to 3', each unit as a sugar letter and its base; * is a phosphorothioate linkage, no mark a phosphodiester; rarer units and linkages stand in square brackets, end groups in braces. Plain capitals give the bases only. d = 2'-deoxy (DNA)

B1: ESTA-1: ESTA-1 thioaptamer sequence (SEQ. ID. 32), IRdye 800-labelled, gold nanoparticle (FIG. 16) (nucleic acid)
DNA: CGCTCGGATCGATAAGCTTCGATCCCACTCTCCCGTTCACTTCTCCTCACGTCACGGATCCTCTAGAGCACTG
modifications: Thioaptamer, thioate positions not given here, IRdye 800 label, gold nanoparticle conjugate

How the values were obtained:
[1] = molecular target: T1, CD44-HABD (Homo sapiens, UniProt P16070); experiment: Filter binding assay of biotinylated XAs with CD44-HABD
T1 construct: DNA encoding CD44-HABD (amino acid residues 20-178) was synthesized and cloned into expression vector pET19b; made in house
T1 sequence (P16070 20-178): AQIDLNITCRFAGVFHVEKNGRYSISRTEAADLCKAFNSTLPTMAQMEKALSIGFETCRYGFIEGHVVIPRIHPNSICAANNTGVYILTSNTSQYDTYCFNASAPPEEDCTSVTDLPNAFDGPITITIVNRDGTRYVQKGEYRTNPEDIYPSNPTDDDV
Procedure: Filter binding assay. The equilibrium binding constants of selected XAs for CD44-HABD were determined by a filter binding assay. The biotinylated XAs (1 nM) were incubated with varying concentrations of CD44-HABD in 50 μL of 20 mM Tris, pH 8.0, 150 mM NaCl for 40 min at room temperature and then transferred to a 96-well dot-blot apparatus and filtered under vacuum onto nitrocellulose membranes, which retain the CD44-HABD along with any bound XAs. The amount of biotinylated XA retained at each spot was determined by chemiluminescent detection using the Chemiluminescent Nucleic Acid Detection Module (Thermo Scientific) following the manufacturer's instructions. The chemiluminescent signals were collected on a Chemimager (Alpha Innotech). Image analysis and quantification of spot intensities were performed using ImageJ (version 1.42q). Binding analysis was based on the spot intensities on the nitrocellulose membranes with subtraction of background spot intensity due to the buffer effect from all the data points. Saturation binding curves were generated by using GraphPad Prism with curve fits assuming a single binding site. The NH2 XA column lists KDs for XAs where X=amino-dU. The ADDA XA column lists KDs for XAs where X=ADDA-dU.
The equilibrium binding constants of the small constructs were determined by the filter binding assay. The derived equilibrium binding constants of the above small XA constructs are shown below in Table 4.

[2] = molecular target: T1, CD44-HABD; experiment: 1H-NMR titration of CD44-HABD with ADDA (equilibrium dissociation constant); format: binding
Procedure: ADDA binding to CD44-HABD. CD44-HABD was prepared in the NMR buffer (20 mM Tris, 50 mM NaCl, 5% (v/v) D2O, pH 6.7). ADDA was dissolved in DMSO (1.4 M) as stock solution. The ADDA sample for NMR was prepared in the same buffer (20 mM Tris, 50 mM NaCl, 1.25 mM ADDA, 0.1% (v/v) DMSO, 5% (v/v) D2O, pH 6.7). CD44-HABD (27 μM) with various concentration of ADDA (14 μM, 25 μM, 50 μM, 250 μM and 1250 μM) was also prepared in the same buffer. The ^1H-NMR spectra of CD44-HABD only, ADDA only and CD44-HABD in presence of ADDA were obtained.
The equilibrium dissociation constant of ADDA to CD44-HABD was determined by ^1H-NMR.

[3] = test system: human pancreatic cancer xenograph; experiment: Near infrared imaging of IR800dye-labeled thioaptamer in mouse xenograft; format: in vivo; details: mouse with human pancreatic cancer xenograph
From the text: Use of Thioaptamers in vivo.

[4] = permonothioated full-length XA, X = ADDA-dU, read-out: KD (nM) ADDA XA
[5] = permonothioated full-length XA, X = amino-dU, read-out: KD (nM) NH2 XA

Row | Molecule | Kd [1, 4] [nM] | Kd [1, 5] [nM] | also measured
1 | 1 (DNA AAGGGAACCAAGGACACTAC; DNA, backbone not given here; tested as phosphodiester and as thiophosphate form) [Motif 1] | – | – | Kd ([1]; truncated motif without X, phosphate backbone, read-out: Dissociation constant (nM), phosphoaptamer form): 10.3 ± 1.3 nM; Kd ([1]; truncated motif without X, thiophosphate backbone, read-out: Dissociation constant (nM), thioaptamer form): 15 ± 2 nM
2 | CC(=O)N[C@H]1[C@H]([C@H](O)[C@H](O)CO)OC(C(=O)O)=C[C@@H]1O [ADDA, N-acetyl-2,3-dehydro-2-deoxyneuraminic acid] | – | – | Kd ([2]; 1H-NMR peak 7.7925 ppm, read-out: KD): 3080 µM; Kd ([2]; 1H-NMR peak 7.9025 ppm, read-out: KD): 1440 µM; Kd ([2]; 1H-NMR peak 7.9225 ppm, read-out: KD): 1720 µM; Kd ([2]; 1H-NMR peak 7.9375 ppm, read-out: KD): 1920 µM; Kd ([2]; 1H-NMR peak 7.9575 ppm, read-out: KD): 1710 µM; Kd ([2]; 1H-NMR peak 7.9925 ppm, read-out: KD): 3430 µM; Kd ([2]; average over the six selected 1H-NMR peaks, read-out: Average KD): 2220 µM and ~2000 µM
3 | XA2: permonothioated X-aptamer to CD44-HABD, SEQ ID NO 13; X = amino-dU or ADDA-dU (DNA NGCAGATCTGCAAGGGAACCAAGGACACTA; phosphorothioate; amino-dU or ADDA-dU modified; (1)..(1) n = X = 5-(aminoethyl-3-acrylimido)- deoxyuridine) | 78.3 ± 18.1 | 55.5 ± 13.4 | –
4 | XA3: permonothioated X-aptamer to CD44-HABD, SEQ ID NO 14; X = amino-dU or ADDA-dU (DNA CCAAGGCCTGCAAGGGAACCAAGTCCANTA; phosphorothioate; amino-dU or ADDA-dU modified; (28)..(28) n = X = 5-(aminoethyl-3-acrylimido)- deoxyuridine) | 140 ± 16.8 | 111 ± 18.5 | –
5 | XA6: permonothioated X-aptamer to CD44-HABD, SEQ ID NO 17; X = amino-dU or ADDA-dU (DNA TTGGGGCCTGCAAGACGACCNAAACGANGA; phosphorothioate; amino-dU or ADDA-dU modified; (21)..(21) n = X = 5-(aminoethyl-3-acrylimido)- deoxyuridine; (28)..(28) n = X = 5-(aminoethyl-3-acrylimido)- deoxyuridine) | 150 ± 25.7 | 214 ± 31.6 | –
6 | XA7: permonothioated X-aptamer to CD44-HABD, SEQ ID NO 18; X = amino-dU or ADDA-dU (DNA NNAAGACGCANTAANGAACCAAGGACGTGA; phosphorothioate; amino-dU or ADDA-dU modified; (1)..(2) n = X = 5-(aminoethyl-3-acrylimido)- deoxyuridine; (11)..(11) n = X = 5-(aminoethyl-3-acrylimido)- deoxyuridine; (15)..(15) n = X = 5-(aminoethyl-3-acrylimido)- deoxyuridine) | 116 ± 20.7 | 306 ± 69.3 | –
7 | XA8: permonothioated X-aptamer to CD44-HABD, SEQ ID NO 19; X = amino-dU or ADDA-dU (DNA CCAAGATCNGNAAGGTANCCGGGGACNG; phosphorothioate; amino-dU or ADDA-dU modified; (9)..(9) n = X = 5-(aminoethyl-3-acrylimido)- deoxyuridine; (11)..(11) n = X = 5-(aminoethyl-3-acrylimido)- deoxyuridine; (18)..(18) n = X = 5-(aminoethyl-3-acrylimido)- deoxyuridine; (27)..(27) n = X = 5-(aminoethyl-3-acrylimido)- deoxyuridine) | 274 ± 54.3 | 463 ± 82.4 | –
8 | XA10: permonothioated X-aptamer to CD44-HABD, SEQ ID NO 21; X = amino-dU or ADDA-dU (DNA dT*dT*dG*dG*dG*dG*dC*dC*dC*dA*dG*dT*dA*dG*dG*dT*dA*dA*dC*dC*dG*dG*dG*dG*dA*dC*dA*dG; further chemistry not given here) | – | 450 ± 180 | –
9 | XA11: permonothioated X-aptamer to CD44-HABD, SEQ ID NO 22; X = amino-dU or ADDA-dU (DNA TTGGGACGTAAGTAANGGGGGACANGA; phosphorothioate; amino-dU or ADDA-dU modified; (16)..(16) n = X = 5-(aminoethyl-3-acrylimido)- deoxyuridine; (25)..(25) n = X = 5-(aminoethyl-3-acrylimido)- deoxyuridine) | 1090 ± 390 | 846 ± 151 | –
10 | XA12: permonothioated X-aptamer to CD44-HABD, SEQ ID NO 23; X = amino-dU or ADDA-dU (DNA NNAAGGCCNGNTAAANGATATCCACTA; phosphorothioate; amino-dU or ADDA-dU modified; (1)..(2) n = X = 5-(aminoethyl-3-acrylimido)- deoxyuridine; (9)..(9) n = X = 5-(aminoethyl-3-acrylimido)- deoxyuridine; (11)..(11) n = X = 5-(aminoethyl-3-acrylimido)- deoxyuridine; (16)..(16) n = X = 5-(aminoethyl-3-acrylimido)- deoxyuridine) | 879 ± 135 | 963 ± 183 | –
11 | XA13: permonothioated X-aptamer to CD44-HABD, SEQ ID NO 24; X = amino-dU or ADDA-dU (DNA NGCAGATCTGCAAGGGAAAGATAGACACAG; phosphorothioate; amino-dU or ADDA-dU modified; (1)..(1) n = X = 5-(aminoethyl-3-acrylimido)- deoxyuridine) | 312 ± 68.5 | 1380 ± 237 | –
12 | B1 | – | – | accumulation in tumor (near infrared image) [3]: accumulates in the tumor
